According to ChEMBL document CHEMBL1201862, “PubChem BioAssay data set” (2004):
The source made the active and inactive calls.

Legend:
[1] = biological target: Induced myeloid leukemia cell differentiation protein Mcl-1 (Homo sapiens, UniProt Q07820); format: functional
[2] = biological target: Peroxisome proliferator-activated receptor gamma/Nuclear receptor corepressor 2 (Homo sapiens, UniProt P37231+Q9Y618); test: Counterscreen for NR2E3 inverse agonists: TR-FRET-based biochemical high throughput dose response assay to identify inverse agonists of the interaction between peroxisome proliferator-activated receptor gamma (PPARg) and nuclear receptor co-repressor 2 (NCOR2).; format: functional
[3] = biological target: Photoreceptor-specific nuclear receptor (Homo sapiens, UniProt Q9Y5X4); test: ligands suppressing NR2E3 nuclear receptor activity – biochemical, TR-FRET, dose response (AID 463256); format: functional
[4] = Trypanosoma cruzi growth suppression in host cells – NIH3T3 host cells, beta-gal luminescence, confirmation (AID 2044); format: functional, cell-based;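 note: intracellular parasites grown in NIH/3T3 mouse fibroblasts as host cells; luminescent beta-galactosidase reporter signal from transgenic T. cruzi replicating inside host cells; inhibitors lower the luminescence signal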
[5] = NIH3T3 cell viability loss – ATP luminescence, mouse fibroblasts, counter-screen, dose response (AID 2010); format: functional, cell-based;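 note: cells exposed to compound for about 90 hours before reading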
[6] = biological target: T1, Lytic switch protein BZLF1 (Epstein-Barr virus (strain B95-8) (HHV-4) (Human herpesvirus 4), UniProt P03206); test: inhibition of BZLF1 ZTA DNA binding – biochemical, fluorescence polarization, Epstein-Barr virus, 1536-well, counter-screen for EBNA-1 inhibitor project, dose response (AID 2377); set-up: species or system human gammaherpesvirus 4;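 note: fluorescence polarization of Cy5-labelled ZRE DNA probe bound by purified Zta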
T1 sequence (P03206 whole entry): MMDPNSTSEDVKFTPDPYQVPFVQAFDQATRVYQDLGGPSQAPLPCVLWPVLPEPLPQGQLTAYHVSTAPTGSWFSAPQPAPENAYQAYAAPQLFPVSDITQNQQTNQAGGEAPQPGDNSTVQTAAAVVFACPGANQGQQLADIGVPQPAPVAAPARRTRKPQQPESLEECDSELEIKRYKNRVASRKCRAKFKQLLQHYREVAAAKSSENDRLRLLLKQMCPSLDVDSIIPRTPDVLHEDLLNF

[7] = biological target: T2, Epstein-Barr nuclear antigen 1 (Epstein-Barr virus (strain B95-8) (HHV-4) (Human herpesvirus 4), UniProt P03211); test: inhibition of EBV nuclear antigen 1 DNA binding – biochemical, fluorescence polarization, 1536-well, dose response (AID 2381); set-up: species or system human gammaherpesvirus 4;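 note: fluorescence polarization of a Cy5 DNA probe bound by EBNA-1 protein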
T2 sequence (P03211 whole entry): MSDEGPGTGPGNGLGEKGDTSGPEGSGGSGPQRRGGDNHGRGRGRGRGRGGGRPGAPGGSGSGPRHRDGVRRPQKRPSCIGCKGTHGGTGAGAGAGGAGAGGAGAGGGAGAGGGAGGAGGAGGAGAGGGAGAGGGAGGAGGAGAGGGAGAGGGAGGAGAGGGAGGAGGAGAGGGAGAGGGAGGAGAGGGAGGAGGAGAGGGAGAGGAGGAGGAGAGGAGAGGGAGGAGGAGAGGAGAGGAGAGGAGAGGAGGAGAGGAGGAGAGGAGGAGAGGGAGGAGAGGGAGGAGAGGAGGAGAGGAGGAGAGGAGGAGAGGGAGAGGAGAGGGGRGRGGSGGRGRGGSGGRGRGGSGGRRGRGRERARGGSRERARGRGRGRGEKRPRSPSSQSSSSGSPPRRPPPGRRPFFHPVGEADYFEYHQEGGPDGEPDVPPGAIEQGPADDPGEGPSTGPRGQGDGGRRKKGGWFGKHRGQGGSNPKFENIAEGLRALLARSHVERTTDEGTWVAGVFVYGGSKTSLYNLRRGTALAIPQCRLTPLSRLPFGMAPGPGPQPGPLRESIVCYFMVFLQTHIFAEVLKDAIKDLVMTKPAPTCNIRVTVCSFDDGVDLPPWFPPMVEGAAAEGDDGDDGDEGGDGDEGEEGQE

[8] = A cytotoxicity screen of small molecule inhibitors of the PhoP region in Salmonella typhi identified in the primary screen. [Related pubchem assays: 1850, 1864, 1985 ]; format: functional
[9] = MIN6 cell viability loss – mouse insulinoma, cytotoxicity control, dose response (AID 2122); format: functional;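 note: confirmatory high-throughput counterscreen run to flag cytotoxic compounds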
[10] = decrease of insulin promoter-GFP reporter – imaging, high-content screening, mouse beta cells (AID 1628); format: functional; settings: MIN6
[11] = toxicity toward HepG2 liver cells – cell-based, plate reader, cherry-pick, antagonist series, cytotoxicity control, dose response (AID 743416); format: functional
[12] = non-specific 3'UTR reporter inhibition in Clone20-Shn3RL – cell-based, Renilla luciferase, cherry-picked, counter-screen for Shn3 inhibitor project, dose response (AID 624133); format: functional
[13] = blockade of melanocortin 4 receptor signaling – cell-based, plate reader, cherry pick, counter-screen for LGR2 antagonist project, dose response (AID 743444); format: functional;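 note: transfected HEK 293 cells stimulated with alpha-MSH peptide; potency of inhibitors of the alpha-MSH evoked signal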
[14] = loss of viability in HepG2 cells – cell-based, CellTiter-Glo, cherry-picked, cytotoxicity control for Shn3 inhibitor project, dose response (AID 624134); format: functional
[15] = A549 cell cytotoxicity, dose response, cytotoxicity control, plate reader, cherry-pick, antagonist series (AID 743412); format: functional, cell-based
[16] = biological target: Sphingosine 1-phosphate receptor 1 (Homo sapiens, UniProt P21453); format: functional;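 note: Tango beta-arrestin reporter U2OS cells stimulated with S1P near its EC80; inhibitor potency meaning antagonism of receptor activation by the natural agonist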
[17] = viability loss in HEK293 cells – cell-based, plate reader, cherry-picked samples, cytotoxicity control, dose response (AID 743446); format: functional
[18] = reduction of Shn3 3'UTR-driven luciferase in osteoblasts – cell-based, Clone20 osteoblasts, firefly luciferase, cherry-picked, dose response (AID 624132); format: functional;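 note: firefly luciferase luminescence from reporter carrying the Shn3 3'UTR in osteoblasts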
[19] = blockers of bursicon-stimulated LGR2 cAMP reporter – cell-based, HEK293, CRE-luciferase reporter, cherry pick, set 2, dose response (AID 743343); format: functional;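 note: transfected cells were stimulated with diluted bursicon conditioned medium after compound addition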
Paired box protein Pax-8 = Paired box protein Pax-8 (Homo sapiens, UniProt Q06710); test: PAX8 transcriptional activity inhibition in RMG-I – RMG-I cells, luciferase, cherry-pick, dose response (AID 687027); format: functional, cell-based;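 note: luciferase reporter driven by Pax8 target thyroperoxidase promoter measured by SteadyGlo luminescence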
[20] = biological target: T3, Sphingosine 1-phosphate receptor 4 (Homo sapiens, UniProt O95977); test: Fluorescence dose response cell-based high throughput screening assay for antagonists of the Sphingosine 1-Phosphate Receptor 4 (S1P4). [Related pubchem assays: 1524 (Confirmation in triplicates.), 1510 (Primary screen.)]; format: functional
T3 sequence (O95977 whole entry): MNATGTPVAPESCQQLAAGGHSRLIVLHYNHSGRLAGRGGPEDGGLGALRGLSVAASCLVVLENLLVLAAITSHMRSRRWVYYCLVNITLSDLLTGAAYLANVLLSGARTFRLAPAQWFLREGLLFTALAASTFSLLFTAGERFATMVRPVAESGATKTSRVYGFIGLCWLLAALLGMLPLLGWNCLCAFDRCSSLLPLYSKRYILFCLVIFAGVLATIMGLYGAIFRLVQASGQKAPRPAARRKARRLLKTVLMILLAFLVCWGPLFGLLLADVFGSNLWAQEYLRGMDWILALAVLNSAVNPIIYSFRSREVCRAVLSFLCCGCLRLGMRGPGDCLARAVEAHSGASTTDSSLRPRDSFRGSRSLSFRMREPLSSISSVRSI

Estrogen receptor beta = Estrogen receptor beta (Homo sapiens, UniProt Q92731);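 note: recombinant ER-beta bound to coactivator SRC1 peptide in presence of estradiol agonist; inhibitors block coactivator peptide binding and lower the FRET signal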
[21] = Luminescence Cell-Based Dose Confirmation HTS to Identify Inhibitors of Platelet Dense Granule Release. [Related pubchem assays: 1663 (Primary HTS), 1678 (Summary of Project)]; format: functional
[22] = biological target: Luciferin 4-monooxygenase (Photinus pyralis, UniProt P08659); test: inhibition of purified Photinus pyralis luciferase – biochemical, luminescence, dose response (AID 1891)
[23] = biological target: T4, Ubiquitin carboxyl-terminal hydrolase BAP1 (Homo sapiens, UniProt Q92560); test: inhibition of BAP1 ubiquitin hydrolase activity – biochemical, dose response (AID 714); format: functional
T4 sequence (Q92560 whole entry): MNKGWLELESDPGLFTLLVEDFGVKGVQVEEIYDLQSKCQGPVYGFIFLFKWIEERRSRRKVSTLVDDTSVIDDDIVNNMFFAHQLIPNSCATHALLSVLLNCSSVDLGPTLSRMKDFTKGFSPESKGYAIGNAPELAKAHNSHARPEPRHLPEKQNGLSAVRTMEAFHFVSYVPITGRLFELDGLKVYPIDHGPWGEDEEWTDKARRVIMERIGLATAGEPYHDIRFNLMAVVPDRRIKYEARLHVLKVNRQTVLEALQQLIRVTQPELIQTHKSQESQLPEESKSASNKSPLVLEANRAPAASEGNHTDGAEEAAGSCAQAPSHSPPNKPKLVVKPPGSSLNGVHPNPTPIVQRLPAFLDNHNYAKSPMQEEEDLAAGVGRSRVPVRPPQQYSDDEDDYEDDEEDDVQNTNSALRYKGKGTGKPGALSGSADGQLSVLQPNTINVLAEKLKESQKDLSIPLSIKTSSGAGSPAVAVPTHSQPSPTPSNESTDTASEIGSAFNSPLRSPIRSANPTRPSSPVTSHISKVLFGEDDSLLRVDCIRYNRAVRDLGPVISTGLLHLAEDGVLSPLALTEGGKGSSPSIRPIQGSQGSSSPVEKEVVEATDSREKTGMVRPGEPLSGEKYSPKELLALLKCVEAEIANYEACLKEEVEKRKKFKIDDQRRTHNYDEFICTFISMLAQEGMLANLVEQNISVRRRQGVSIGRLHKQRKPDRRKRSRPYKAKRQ

Cytochrome P450 2C9 = Cytochrome P450 2C9 (Homo sapiens, UniProt P11712)
[24] = viability of PTEN-deleted HCT116 cells – cell-based, HCT116 PTEN knockout, dose response (AID 1047); format: functional;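 note: HCT116 colon tumor cells with PTEN knocked out; cells exposed to compound for 60 hours before readout; potency for loss of cell viability measured by luminescence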
[25] = viability of HCT116 lacking mutant beta-catenin – cell-based, human colon tumor, dose response (AID 1045); format: functional;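 note: HCT116 colon tumor cells with beta catenin knocked out; cells exposed to compound for 60 hours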

Chain of Photoreceptor-specific nuclear receptor (Q9Y5X4 whole entry): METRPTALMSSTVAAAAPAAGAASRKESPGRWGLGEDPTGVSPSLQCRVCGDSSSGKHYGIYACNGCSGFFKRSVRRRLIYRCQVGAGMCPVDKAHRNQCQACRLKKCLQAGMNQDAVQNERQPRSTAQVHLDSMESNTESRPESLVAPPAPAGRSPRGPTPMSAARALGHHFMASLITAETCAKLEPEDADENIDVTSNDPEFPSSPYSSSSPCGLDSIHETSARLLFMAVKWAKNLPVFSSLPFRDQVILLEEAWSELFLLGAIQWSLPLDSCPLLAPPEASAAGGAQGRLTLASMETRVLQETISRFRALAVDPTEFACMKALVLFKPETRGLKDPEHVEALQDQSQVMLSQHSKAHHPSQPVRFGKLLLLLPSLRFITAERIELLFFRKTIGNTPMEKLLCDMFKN
Chain of Peroxisome proliferator-activated receptor gamma/Nuclear receptor corepressor 2 (P37231 whole entry): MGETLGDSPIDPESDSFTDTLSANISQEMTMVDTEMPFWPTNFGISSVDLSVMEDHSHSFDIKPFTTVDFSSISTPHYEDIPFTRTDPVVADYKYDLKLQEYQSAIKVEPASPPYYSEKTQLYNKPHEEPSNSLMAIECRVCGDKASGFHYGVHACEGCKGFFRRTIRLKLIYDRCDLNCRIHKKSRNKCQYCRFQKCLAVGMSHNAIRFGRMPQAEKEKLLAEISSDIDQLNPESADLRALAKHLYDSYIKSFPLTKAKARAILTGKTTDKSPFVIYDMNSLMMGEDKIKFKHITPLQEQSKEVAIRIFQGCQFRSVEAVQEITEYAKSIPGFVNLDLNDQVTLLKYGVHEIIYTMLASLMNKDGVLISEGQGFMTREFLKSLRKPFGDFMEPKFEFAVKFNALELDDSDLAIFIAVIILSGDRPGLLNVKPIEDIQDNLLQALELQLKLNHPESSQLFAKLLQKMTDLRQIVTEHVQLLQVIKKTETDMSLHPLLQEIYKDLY
Chain of Peroxisome proliferator-activated receptor gamma/Nuclear receptor corepressor 2 (Q9Y618 whole entry): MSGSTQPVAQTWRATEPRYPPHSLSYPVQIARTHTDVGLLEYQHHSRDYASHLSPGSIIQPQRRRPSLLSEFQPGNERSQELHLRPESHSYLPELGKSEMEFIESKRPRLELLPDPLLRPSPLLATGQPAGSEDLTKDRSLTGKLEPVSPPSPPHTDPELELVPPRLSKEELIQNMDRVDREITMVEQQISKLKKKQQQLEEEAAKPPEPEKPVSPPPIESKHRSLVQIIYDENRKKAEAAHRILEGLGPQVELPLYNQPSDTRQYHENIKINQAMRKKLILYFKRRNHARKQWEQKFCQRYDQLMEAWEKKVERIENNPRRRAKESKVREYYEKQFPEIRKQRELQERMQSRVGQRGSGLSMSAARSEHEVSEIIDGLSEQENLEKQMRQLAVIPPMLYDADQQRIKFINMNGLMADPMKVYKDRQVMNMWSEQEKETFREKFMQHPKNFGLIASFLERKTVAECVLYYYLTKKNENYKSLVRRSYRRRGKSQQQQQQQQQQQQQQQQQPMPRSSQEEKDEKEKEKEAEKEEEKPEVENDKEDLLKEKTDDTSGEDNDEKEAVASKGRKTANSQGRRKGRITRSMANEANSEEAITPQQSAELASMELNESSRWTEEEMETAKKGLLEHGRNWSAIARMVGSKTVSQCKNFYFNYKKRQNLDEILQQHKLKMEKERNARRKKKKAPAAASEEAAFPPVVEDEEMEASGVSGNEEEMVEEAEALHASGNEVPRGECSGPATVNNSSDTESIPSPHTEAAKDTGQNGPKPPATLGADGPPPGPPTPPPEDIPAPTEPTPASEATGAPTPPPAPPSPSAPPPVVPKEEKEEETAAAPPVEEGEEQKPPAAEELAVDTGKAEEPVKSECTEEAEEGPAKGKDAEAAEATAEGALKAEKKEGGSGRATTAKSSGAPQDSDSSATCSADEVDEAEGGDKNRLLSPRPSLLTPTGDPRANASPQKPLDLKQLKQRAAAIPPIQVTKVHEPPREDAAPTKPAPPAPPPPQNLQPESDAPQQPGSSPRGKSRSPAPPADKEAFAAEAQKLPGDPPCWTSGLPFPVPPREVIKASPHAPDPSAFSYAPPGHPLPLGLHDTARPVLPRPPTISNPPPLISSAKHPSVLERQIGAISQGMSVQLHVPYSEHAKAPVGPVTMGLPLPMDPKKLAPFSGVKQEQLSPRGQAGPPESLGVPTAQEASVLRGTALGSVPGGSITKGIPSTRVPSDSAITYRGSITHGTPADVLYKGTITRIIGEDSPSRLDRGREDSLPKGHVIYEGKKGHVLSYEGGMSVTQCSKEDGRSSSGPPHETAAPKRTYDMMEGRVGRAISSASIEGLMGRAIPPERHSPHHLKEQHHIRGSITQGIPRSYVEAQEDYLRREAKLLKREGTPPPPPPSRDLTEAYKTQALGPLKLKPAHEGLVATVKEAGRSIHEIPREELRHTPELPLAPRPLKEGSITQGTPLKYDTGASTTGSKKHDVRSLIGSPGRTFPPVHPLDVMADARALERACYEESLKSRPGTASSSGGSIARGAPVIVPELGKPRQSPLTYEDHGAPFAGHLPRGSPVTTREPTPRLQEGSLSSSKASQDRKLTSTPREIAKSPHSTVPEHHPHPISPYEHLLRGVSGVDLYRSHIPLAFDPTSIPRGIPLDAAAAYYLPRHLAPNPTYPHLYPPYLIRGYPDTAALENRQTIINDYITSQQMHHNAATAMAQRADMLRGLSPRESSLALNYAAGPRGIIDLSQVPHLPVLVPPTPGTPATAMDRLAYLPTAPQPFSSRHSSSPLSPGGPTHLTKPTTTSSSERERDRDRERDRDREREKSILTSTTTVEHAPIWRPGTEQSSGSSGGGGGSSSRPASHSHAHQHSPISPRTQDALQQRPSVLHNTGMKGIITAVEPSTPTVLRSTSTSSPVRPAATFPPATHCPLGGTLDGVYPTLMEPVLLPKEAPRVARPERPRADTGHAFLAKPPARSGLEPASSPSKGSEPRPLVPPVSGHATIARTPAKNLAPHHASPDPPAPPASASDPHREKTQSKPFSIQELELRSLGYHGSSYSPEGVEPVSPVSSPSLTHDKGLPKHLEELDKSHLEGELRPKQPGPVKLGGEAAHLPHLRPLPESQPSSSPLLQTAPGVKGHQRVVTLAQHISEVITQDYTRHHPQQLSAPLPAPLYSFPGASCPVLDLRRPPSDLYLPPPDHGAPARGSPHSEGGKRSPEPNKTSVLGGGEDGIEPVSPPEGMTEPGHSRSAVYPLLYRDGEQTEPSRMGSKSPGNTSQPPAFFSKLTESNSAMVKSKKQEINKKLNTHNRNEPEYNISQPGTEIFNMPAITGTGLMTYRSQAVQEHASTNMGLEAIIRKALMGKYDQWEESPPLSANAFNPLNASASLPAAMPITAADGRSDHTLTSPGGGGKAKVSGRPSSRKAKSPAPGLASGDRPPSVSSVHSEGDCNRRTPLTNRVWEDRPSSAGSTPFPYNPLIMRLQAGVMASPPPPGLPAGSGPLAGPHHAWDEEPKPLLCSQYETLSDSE
Chain of Induced myeloid leukemia cell differentiation protein Mcl-1 (Q07820 whole entry): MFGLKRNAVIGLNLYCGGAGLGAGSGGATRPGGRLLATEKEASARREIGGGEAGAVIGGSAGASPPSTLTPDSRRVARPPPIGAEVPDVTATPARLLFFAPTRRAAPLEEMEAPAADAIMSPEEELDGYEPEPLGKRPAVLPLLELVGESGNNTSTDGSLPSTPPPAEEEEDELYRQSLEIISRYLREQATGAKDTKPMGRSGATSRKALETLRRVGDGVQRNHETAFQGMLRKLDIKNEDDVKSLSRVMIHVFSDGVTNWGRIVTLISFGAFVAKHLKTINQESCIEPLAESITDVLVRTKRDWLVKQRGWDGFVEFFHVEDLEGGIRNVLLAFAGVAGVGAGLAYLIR
Chain of Estrogen receptor beta (Q92731 whole entry): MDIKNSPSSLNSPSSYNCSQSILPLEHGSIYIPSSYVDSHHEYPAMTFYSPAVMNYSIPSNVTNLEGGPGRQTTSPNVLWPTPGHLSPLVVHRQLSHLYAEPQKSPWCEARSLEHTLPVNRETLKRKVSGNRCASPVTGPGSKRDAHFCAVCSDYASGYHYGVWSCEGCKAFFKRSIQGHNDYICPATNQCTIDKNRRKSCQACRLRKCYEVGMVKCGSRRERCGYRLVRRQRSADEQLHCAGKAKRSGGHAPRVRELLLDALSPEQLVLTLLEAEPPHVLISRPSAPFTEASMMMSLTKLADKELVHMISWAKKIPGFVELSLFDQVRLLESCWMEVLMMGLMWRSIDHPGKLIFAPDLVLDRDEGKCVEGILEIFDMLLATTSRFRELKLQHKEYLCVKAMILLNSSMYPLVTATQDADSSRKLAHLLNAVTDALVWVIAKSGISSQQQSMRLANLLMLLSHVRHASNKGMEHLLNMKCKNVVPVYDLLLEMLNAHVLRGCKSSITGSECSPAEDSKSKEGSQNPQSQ
Chain of Sphingosine 1-phosphate receptor 1 (P21453 whole entry): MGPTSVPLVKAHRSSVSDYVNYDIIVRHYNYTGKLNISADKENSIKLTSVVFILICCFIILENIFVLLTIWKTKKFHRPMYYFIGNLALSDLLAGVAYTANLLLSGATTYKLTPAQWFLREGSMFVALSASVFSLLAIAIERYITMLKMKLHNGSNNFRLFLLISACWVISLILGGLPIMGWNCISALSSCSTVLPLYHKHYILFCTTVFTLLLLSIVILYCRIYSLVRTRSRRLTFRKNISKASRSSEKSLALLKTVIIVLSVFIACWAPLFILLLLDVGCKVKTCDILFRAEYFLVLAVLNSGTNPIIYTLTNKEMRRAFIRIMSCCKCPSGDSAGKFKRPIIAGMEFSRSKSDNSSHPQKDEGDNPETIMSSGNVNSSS

CCN(c1ccc(NC(=O)COC(=O)c2ccc(C)c(S(=O)(=O)N3CCOCC3)c2)cc1)C(C)C
IC50 [1]: 1.67 µM (not active)

O=C(CSc1ccc(-c2cccs2)nn1)N1CCCCC1
IC50 [2]: 8.03 µM (active) | IC50 [3]: 2.64 µM (active)

CC(=O)N(Cc1cccnc1)c1cccc(-c2nc3ccccc3s2)c1
EC50 (cells): 0.078 µM (active) | EC50 [4]: < 0.1 µM (active) | EC50 [5]: > 60 µM (not active)

COc1ccccc1NC(=O)C(=O)N/N=C/c1ccc([N+](=O)[O-])s1
EC50 [4]: 0.858 µM (active) | EC50 [5]: > 60 µM (not active) | IC50 [1]: 2.56 µM (active)

COCCOC(=O)c1c(NC(=O)COC(=O)Cc2cccc(OC)c2)sc(C(N)=O)c1C
IC50 [6]: > 111 µM (not active) | IC50 [7]: > 5.47 µM (active)

CCCCN(CC)CCCNC(=O)C1CCN(c2ncnc3c2sc2cccc(F)c23)CC1
EC50 (cells): 0.294 µM (active) | EC50 [4]: < 0.1 µM (active) | EC50 [5]: > 30 µM (not active)

COc1ccc(C(=O)Nc2ccc(NC(=O)c3cccs3)cn2)cc1
IC50 [2]: 7.65 µM (active) | IC50 [3]: 7.18 µM (active)

O=C(CSC1=NCCS1)Nc1nc2c(s1)CCCC2
EC50 [8]: > 50 µM (active)

CCN1C(=O)N/C(=C/c2cc(C)n(Cc3ccccc3)c2C)C1=O
EC50 [8]: > 50 µM (active)

COc1ccc(-n2ncc(Cl)c(Cl)c2=O)cc1
IC50 [9]: 1.11 µM (active) | IC50 [10]: 1.56 µM (active) | AC50 [11]: 8.23 µM (active) | AC50 [12]: 8.07 µM (active) | AC50 [13]: 26.5 µM (active) | AC50 [14]: 32.9 µM (active) | AC50 [15]: 10.8 µM (active) | IC50 [16]: 21.6 µM (not active) | AC50 [17]: 7.88 µM (active) | AC50 [18]: 3.36 µM (active) | AC50 [19]: 20.2 µM (active) | AC50 (Paired box protein Pax-8): 5.62 µM (active) | IC50 [20]: 2.09 µM (active) | EC50 [4]: 1.59 µM (active) | EC50 [5]: 2.03 µM (active)

Cc1ccc(CCNS(=O)(=O)c2c[nH]cn2)cc1
IC50 (Estrogen receptor beta): > 50 µM (not active)

C(=C\c1ccco1)/c1ccc2ccccc2n1
EC50 [21]: 15.2 µM (active) | EC50 [22]: 4.25 µM (active) | IC50 [1]: 9.47 µM (active)

CCCO/C(O)=C1\C(C)=NC2=C(C(=O)CCC2)C1c1cccc(OC)c1OC (stereo unspecified)
IC50 [23]: 33.9 µM (not active)

CCCCNC(=O)c1cnc2ccc(S(=O)(=O)Nc3ccc(OCC)cc3)cc2c1O
IC50 [23]: > 50 µM (not active)

COc1cccc(/C=N/NC(=O)CO/N=C(\C)c2cccs2)c1OC
AC50 (Cytochrome P450 2C9): 39.8 µM (inconclusive) | EC50 [8]: > 50 µM (active)

O=C(Nc1nnc(C2CCCO2)s1)c1ccc(Br)cc1 (stereo unspecified)
IC50 (Estrogen receptor beta): > 50 µM (not active)

COc1ccc(CNS(=O)(=O)c2ccc(S(=O)(=O)N3CCCCC3)cc2)cc1
IC50 [23]: > 50 µM (not active)

COc1ccc(-c2nn3c(-c4ccc(F)cc4)nnc3s2)cc1
IC50 [2]: > 39.8 µM (not active) | IC50 [3]: > 39.8 µM (not active)

Cc1ccsc1C(=O)C1CCCN(Cc2cnc(N3CCCC3)s2)C1 (stereo unspecified)
EC50 (cells): 0.137 µM (active) | EC50 [4]: < 0.1 µM (active) | EC50 [5]: > 60 µM (not active)

O=C(Nc1ccc2ccccc2c1)Nc1ccc2snnc2c1
EC50 [24]: 14.9 µM (active) | IC50 [6]: > 111 µM (not active) | IC50 [7]: 10.1 µM (not active) | EC50 [4]: 1.94 µM (active) | EC50 [5]: > 60 µM (not active) | EC50 [25]: 15.9 µM (active)

COc1ccc(N2CC(=O)C(c3nc4ccccc4s3)=C2N)cc1
IC50 [6]: > 111 µM (not active) | IC50 [7]: 11.2 µM (not active)
